Drawing on patent publication US7902373B2 (Pfizer Inc, priority 2006, dated 2011), this text covers IC50 for 36 molecules.

For the experiment, the target named is human recombinant H-PGDS (Homo sapiens, UniProt O60760). In words: Fluorescence intensity h-PGDS TBA enzyme assay. It counts as biochemical. The note with it: Examples up to 622 (and 3a, 3b).
Chain of human recombinant H-PGDS (O60760 whole entry): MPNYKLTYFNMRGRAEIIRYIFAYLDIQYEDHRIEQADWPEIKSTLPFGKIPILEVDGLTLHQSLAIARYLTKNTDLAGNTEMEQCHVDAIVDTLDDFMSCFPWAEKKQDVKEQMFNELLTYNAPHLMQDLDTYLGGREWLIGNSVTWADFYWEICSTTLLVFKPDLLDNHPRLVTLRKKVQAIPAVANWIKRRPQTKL
As a reminder, the IC50 is the midpoint of a concentration-inhibition curve. Regarding `Cc1ncc2c(n1)CCC(CN1CCC(NC(=O)c3ccc(-c4cccc(F)c4)nc3)CC1)C2` (stereo not drawn) [Example 401, 6-(3-Fluorophenyl)-N-{1-[(2-methyl-5,6,7,8-tetrahydroquinazolin-6-yl)methyl]piperidin-4-yl}nicotinamide], the IC50 stood at 0.574 nM.
Regarding `CC(C)(C)c1ncc2c(n1)CCC(CN1CCC(NC(=O)c3ccc(-c4cccc(F)c4)nc3)CC1)C2` (stereo not drawn) [Example 402, N-{1-[(2-tert-Butyl-5,6,7,8-tetrahydroquinazolin-6-yl)methyl]piperidin-4-yl}-6-(3-fluorophenyl)nicotinamide], the IC50 was 1.64 nM.
With `CCCc1ncc2c(n1)CCC(CN1CCC(NC(=O)c3ccc(-c4cccc(F)c4)nc3)CC1)C2` (stereo not drawn) [Example 403, 6-(3-Fluorophenyl)-N-{1-[(2-propyl-5,6,7,8-tetrahydroquinazolin-6-yl)methyl]piperidin-4-yl}nicotinamide] the figure was 0.121 nM.
With `COCCOc1c(CN2CCC(NC(=O)c3ccc(-c4cccc(F)c4)nc3)CC2)cccc1OC` [Example 404, 6-(3-Fluorophenyl)-N-{1-[3-methoxy-2-(2-methoxyethoxy)benzyl]piperidin-4-yl}nicotinamide] the figure was 0.469 nM.
With `COc1cc(CN2CCC(NC(=O)c3ccc(-c4cccc(F)c4)nc3)CC2)ccc1OCC(F)F` [Example 405, N-{1-[(2,2-Difluoroethoxy)-3-methoxybenzyl]piperidin-4-yl}-6-(3-fluorophenyl)nicotinamide] the figure was 0.483 nM.
Consider `O=C(NC1CCN(Cc2cn3ccccc3n2)CC1)c1ccc(-c2cccc(F)c2)nc1` [Example 406, 6-(3-Fluorophenyl)-N-[1-(imidazo[1,2-a]pyridin-2-ylmethyl)piperidin-4-yl]nicotinamide], for which the IC50 stood at 2.36 nM.
For `O=C(NC1CCN(Cc2nc(-c3ccc(F)cc3)cs2)CC1)c1ccc(-c2cccc(F)c2)nc1` [Example 407, 6-(3-Fluorophenyl)-N-(1-{[4-(4-fluorophenyl)-1,3-thiazol-2-yl]methyl}piperidin-4-yl)nicotinamide] the value was 5.4 nM; for `O=C(NC1CCN(Cc2nc(-c3cccc(F)c3)cs2)CC1)c1ccc(-c2cccc(F)c2)nc1` [Example 408, 6-(3-Fluorophenyl)-N-(1-{[4-(3-fluorophenyl)-1,3-thiazol-2-yl]methyl}piperidin-4-yl)nicotinamide], 61.9 nM; for `COc1cccc(-c2csc(CN3CCC(NC(=O)c4ccc(-c5cccc(F)c5)nc4)CC3)n2)c1` [Example 409, 6-(3-Fluorophenyl)-N-(1-{[4-(3-methoxyphenyl)-1,3-thiazol-2-yl]methyl}piperidin-4-yl)nicotinamide], 2.25 nM.
`N#Cc1cccc(-c2csc(CN3CCC(NC(=O)c4ccc(-c5cccc(F)c5)nc4)CC3)n2)c1` [Example 410, N-(1-{[4-(3-Cyanophenyl)-1,3-thiazol-2-yl]methyl}piperidin-4-yl)-6-(3-fluorophenyl)nicotinamide]: the IC50 stood at 16.3 nM.
With `CCc1csc(CN2CCC(NC(=O)c3ccc(-c4cccc(F)c4)nc3)CC2)n1` [Example 411, N-{1-[(4-Ethyl-1,3-thiazol-2-yl)methyl]piperidin-4-yl}-6-(3-fluorophenyl)nicotinamide] the figure was 1.36 nM; with `Cc1sc(CN2CCC(NC(=O)c3ccc(-c4cccc(F)c4)nc3)CC2)nc1-c1ccccc1` [Example 412, 6-(3-Fluorophenyl)-N-{1-[(5-methyl-4-phenyl-13-thiazol-2-yl)methyl]piperidin-4-yl}nicotinamide], 4.12 nM; with `O=C(NC1CCN(Cc2nc3ccccn3c2Br)CC1)c1ccc(-c2cccc(F)c2)nc1` [Example 414, N-{1-[(3-Bromoimidazo[1,2-a]pyridin-2-yl)methyl]piperidin-4-yl}-6-(3-fluorophenyl)nicotinamide], 0.35 nM.
With `Cn1c(CN2CCC(NC(=O)c3ccc(-c4cccc(F)c4)nc3)CC2)nc2cccnc21` [Example 415, 6-(3-Fluorophenyl)-N-{1-[(3-methyl-3H-imidazo[4,5-b]pyridin-2-yl)methyl]piperidin-4-yl}nicotinamide] the figure was 1.96 nM; with `CC(C)(C)OC(=O)NC1CCC(CN2CCC(NC(=O)c3ccc(-c4cccc(F)c4)nc3)CC2)CC1` (stereo not drawn) [Example 416, tert-Butyl (4-{[4-({[6-(3-fluorophenyl)pyridin-3-yl]carbonyl}amino)piperidin-1-yl]methyl}cyclohexyl)carbamate], 1.68 nM.
With `CN(C)CCCOc1cccc(CN2CCC(NC(=O)c3ccc(-c4cccc(F)c4)nc3)CC2)c1` [Example 417, N-(1-{3-[3-(Dimethylamino)propoxy]benzyl}piperidin-4-yl)-6-(3-fluorophenyl)nicotinamide] the figure was 1.1 nM.
As for `O=C(NC1CCN(Cc2cccc3c2OCCO3)CC1)c1ccc(-c2cccc(F)c2)nc1` [Example 418, N-[1-(2,3-Dihydro-1,4-benzodioxin-5-ylmethyl)piperidin-4-yl]-6-(3-fluorophenyl)nicotinamide], the IC50 is 0.427 nM.
In the case of `CC(C)(O)c1ccc(CN2CCC(NC(=O)c3ccc(-c4cccc(F)c4)nc3)CC2)c(F)c1` [Example 419, N-[1-(2-Fluoro-4-(1-hydroxy-1-methylethyl)benzyl]piperidin-4-yl}-6-(3-fluorophenyl)nicotinamide], the IC50 is 1.03 nM.
For `COCCn1c(CN2CCC(NC(=O)c3ccc(-c4cccc(F)c4)nc3)CC2)nc2ccccc21` [Example 420, 6-(3-Fluorophenyl)-N-(1-{[1-(2-methoxyethyl)-1H-benzimidazol-2-yl]methyl}piperidin-4-yl)nicotinamide] the value was 3.4 nM; for `Cn1c(CN2CCC(NC(=O)c3ccc(-c4cccc(F)c4)nc3)CC2)nc2ncccc21` [Example 421, 6-(3-Fluorophenyl)-N-{1-[(1-methyl-1H-imidazo[4,5-b]pyridin-2-yl)methyl]piperidin-4-yl}nicotinamide], 1.34 nM; for `O=C(NC1CCN(Cc2nc3ccccc3n2C2CC2)CC1)c1ccc(-c2cccc(F)c2)nc1` [Example 422, N-{1-[(1-Cyclopropyl-1H-benzimidazol-2-yl)methyl]piperidin-4-yl}-6-(3-fluorophenyl)nicotinamide], 2.53 nM.
For `O=C(NC1CCN(Cc2nc3ccccc3n2CCF)CC1)c1ccc(-c2cccc(F)c2)nc1` [Example 423] the value was 0.931 nM; for `O=C(NC1CCN(Cc2nc3ccccc3n2CF)CC1)c1ccc(-c2cccc(F)c2)nc1` [Example 424], 1.3 nM; for `COc1ccc(CN2CCC(NC(=O)c3ccc(-c4cccc(F)c4)nc3)CC2)cc1OCC(F)F` [Example 425, N-{1-[3-(2,2-Difluoroethyoxy)-4-methoxybenzyl]piperidin-4-yl}-6-(3-fluorophenyl)nicotinamide], 2.81 nM.
For `O=C(NC1CCN(Cc2coc(-c3ccccc3)n2)CC1)c1ccc(-c2cccc(F)c2)nc1` [Example 426, 6-(3-Fluorophenyl)-N-{1-[(2-phenyl-1,3-oxazol-4-yl)methyl]piperidin-4-yl}nicotinamide] the value was 5.53 nM.
On to `CCCn1cc(CN2CCC(NC(=O)c3ccc(-c4cccc(F)c4)nc3)CC2)c(C)n1` [Example 427, 6-(3-Fluorophenyl)-N-{1-[(3-methyl-1-propyl-1H-pyrazol-4-yl)methyl]piperidin-4-yl}nicotinamide], for which the half-maximal inhibitory concentration (IC50) amounted to 0.656 nM.
As for `CC(C)Oc1ccc(CN2CCC(NC(=O)c3ccc(-c4cccc(F)c4)nc3)CC2)cc1CO` [Example 428, 6-(3-Fluorophenyl)-N-{1-[3-(hydroxymethyl)-4-isopropoxybenzyl]piperidin-4-yl}nicotinamide], the IC50 stood at 0.926 nM.
With `CC(C)Cc1cc(CN2CCC(NC(=O)c3ccc(-c4cccc(F)c4)nc3)CC2)n[nH]1` [Example 429, 6-(3-Fluorophenyl)-N-{1-[(5-isobutyl-1H-pyrazol-3-yl)methyl]piperidin-4-yl}nicotinamide] the figure was 1.12 nM.
With `O=C(NC1CCN(Cc2ccc3cccc(F)c3n2)CC1)c1ccc(-c2cccc(F)c2)nc1` [Example 430, 6-(3-Fluorophenyl)-N-{1-[(8-fluoroquinolin-2-yl)methyl]piperidin-4-yl}nicotinamide] the figure was 1.2 nM; with `CCn1ccnc1CN1CCC(NC(=O)c2ccc(-c3cccc(F)c3)nc2)CC1` [Example 431, N-{1-[(1-Ethyl-1H-imidazol-2-yl)methyl]piperidin-4-yl}-6-(3-fluorophenyl)nicotinamide], 0.822 nM.
With `Cc1c(CN2CCC(NC(=O)c3ccc(-c4cccc(F)c4)nc3)CC2)nc2ccccn12` [Example 432, 6-(3-Fluorophenyl)-N-{1-[(3-methylimidazo[1,2-a]pyridin-2-yl)methyl]piperidin-4-yl}nicotinamide] the figure was 0.962 nM.
Turning to `CC(C)c1csc(CN2CCC(NC(=O)c3ccc(-c4cccc(F)c4)nc3)CC2)n1` [Example 433, 6-(3-Fluorophenyl)-N-{1-[(4-isopropyl-1,3-thiazol-2-yl)methyl]piperidin-4-yl}nicotinamide], the IC50 was determined as 0.401 nM.
For `Cc1ccccc1-c1ncc(CN2CCC(NC(=O)c3ccc(-c4cccc(F)c4)nc3)CC2)cn1` [Example 434, 6-(3-Fluorophenyl)-N-(1-{[2-(2-methylphenyl)pyrimidin-5-yl]methyl}piperidin-4-yl)nicotinamide] the value was 1.51 nM.
With `Cc1cccc(-n2ccnc2CN2CCC(NC(=O)c3ccc(-c4cccc(F)c4)nc3)CC2)c1` [Example 435, 6-(3-Fluorophenyl)-N-(1-{[1-(3-methylphenyl)-1H-imidazol-2-yl]methyl}piperidin-4-yl)nicotinamide] the figure was 0.908 nM; with `O=C(NC1CCN(Cc2ccccc2Cn2cccn2)CC1)c1ccc(-c2cccc(F)c2)nc1` [Example 436, 6-(3-Fluorophenyl)-N-{1-[2-(1H-pyrazol-1-ylmethyl)benzyl]piperidin-4-yl}nicotinamide], 0.885 nM; with `COc1ccccc1-c1ncc(CN2CCC(NC(=O)c3ccc(-c4cccc(F)c4)nc3)CC2)cn1` [Example 437, 6-(3-Fluorophenyl)-N-(1-{[2-(2-methoxyphenyl)pyrimidin-5-yl]methyl}piperidin-4-yl)nicotinamide], 3.52 nM.
